Measurements from ChEMBL document CHEMBL3758177, “Synthesis and biological evaluation of novel phosphoramidate derivatives of coumarin as chitin synthase inhibitors and antifungal agents” (Eur J Med Chem, 2016).
Converted amounts (≈) assume the structure as drawn.

Assays:
[1] = test system: Fusarium oxysporum; test: Antifungal activity against Fusarium oxysporum ITCC 6246 after 48 hrs by micro-titer plate method; format: functional; settings: ITCC 6246, 48 h
[2] = test system: Fusarium oxysporum; test: Antifungal activity against Fusarium oxysporum ITCC 6246 after 48 hrs by microdilution method; format: functional; settings: ITCC 6246, 48 h
[3] = test system: Candida albicans; test: Antifungal activity against Candida albicans CMCC 76615 after 48 hrs by microdilution method; format: functional; settings: CMCC 76615, 48 h
[4] = test system: Aspergillus flavus; test: Antifungal activity against Aspergillus flavus ATCC 16870 after 24 hrs by two-fold serial dilution method; format: functional; settings: ATCC 16870, 24 h
[5] = test system: Aspergillus fumigatus; test: Antifungal activity against Aspergillus fumigatus GIMCC 3.19 after 24 hrs by two-fold serial dilution method; format: functional; settings: GIMCC 3.19, 24 h
[6] = test system: Cryptococcus neoformans; test: Antifungal activity against Cryptococcus neoformans ATCC 32719 after 24 hrs by two-fold serial dilution method; format: functional; settings: ATCC 32719, 24 h
[7] = test system: Staphylococcus aureus; test: Antibacterial activity against Methicillin-resistant Staphylococcus aureus N 315 after 24 hrs by two-fold serial dilution method; format: functional; settings: N 315, 24 h
[8] = test system: Staphylococcus aureus; test: Antibacterial activity against Staphylococcus aureus ATCC 25923 after 24 hrs by two-fold serial dilution method; format: functional; settings: ATCC 25923, 24 h
[9] = test system: Bacillus spizizenii; test: Antibacterial activity against Bacillus subtilis ATCC 6633 after 24 hrs by two-fold serial dilution method; format: functional; settings: ATCC 6633, 24 h
[10] = test system: Proteus vulgaris; test: Antibacterial activity against Proteus vulgaris ATCC 8427 after 24 hrs by two-fold serial dilution method; format: functional; settings: ATCC 8427, 24 h
[11] = test system: Pseudomonas aeruginosa; test: Antibacterial activity against Pseudomonas aeruginosa ATCC 9027 after 24 hrs by two-fold serial dilution method; format: functional; settings: ATCC 9027, 24 h
[12] = test system: Escherichia coli; test: Antibacterial activity against Escherichia coli JM 109 after 24 hrs by two-fold serial dilution method; format: functional; settings: JM 109, 24 h
[13] = test system: Candida tropicalis; test: Inhibition of Candida tropicalis ATCC 750 chitin synthase using UDP-GlcNAc as substrate at 300 ug/ml after 60 mins by microplate reader method
[14] = Inhibition of Candida tropicalis ATCC 750 chitin synthase using UDP-GlcNAc as substrate after 60 mins by microplate reader method
[15] = test system: Candida albicans; test: Antifungal activity against Candida albicans CMCC 76615 after 24 hrs by two-fold serial dilution method; format: functional; settings: CMCC 76615, 24 h
[16] = Non-competitive inhibition of Candida tropicalis ATCC 750 chitin synthase using UDP-GlcNAc as substrate by Lineweaver-Burk plot analysis

| Structure (SMILES) | MIC [1] [µg/mL] | MIC [2] [µg/mL] | MIC [3] [µg/mL] | MIC [4] [µg/mL] | MIC [5] [µg/mL] | MIC [6] [µg/mL] | MIC [7] [µg/mL] | MIC [8] [µg/mL] | MIC [9] [µg/mL] | MIC [10] [µg/mL] | MIC [11] [µg/mL] | MIC [12] [µg/mL] | inhibition [13] [%] | IC50 [14] [µM] | MIC [15] [µg/mL] | Ki [16] [µM] |
| --- | --- | --- | --- | --- | --- | --- | --- | --- | --- | --- | --- | --- | --- | --- | --- | --- |
| C=C1CC(CC/C(C)=C\COc2ccc3ccc(=O)oc3c2)OC1=O (configuration not stated) | 19 (≈ 55.8 µM) | – | – | – | – | – | – | – | – | – | – | – | – | – | – | – |
| Cc1ccc(NS(=O)(=O)c2cc3c(CN=[N+]=[N-])cc(=O)oc3cc2C)cc1 | – | 1 (≈ 2.6 µM) | 1 (≈ 2.6 µM) | – | – | – | – | – | – | – | – | – | – | – | – | – |
| COC(=O)C(C)NP(=O)(OCCN(C)c1cc(=O)oc2c(C)cccc12)Oc1ccccc1 (configuration not stated) | – | – | – | 64 (≈ 135 µM) | 32 (≈ 67.4 µM) | 128 (≈ 270 µM) | 128 (≈ 270 µM) | 64 (≈ 135 µM) | 512 (≈ 1080 µM) | 128 (≈ 270 µM) | 256 (≈ 540 µM) | 128 (≈ 270 µM) | 64 | 220 | 64 (≈ 135 µM) | – |
| CC1COc2c(N3CCN(C)CC3)c(F)cc3c(=O)c(C(=O)O)cn1c23 (configuration not stated) [OFLOXACIN] | – | – | – | – | – | – | 1 (≈ 2.77 µM) | 1 (≈ 2.77 µM) | 0.25 (≈ 0.692 µM) | 0.25 (≈ 0.692 µM) | 0.25 (≈ 0.692 µM) | 0.25 (≈ 0.692 µM) | – | – | – | – |
| COC(=O)C(C)NP(=O)(OCCN(C)c1cc(=O)oc2ccccc12)Oc1ccccc1 (configuration not stated) | – | – | – | 64 (≈ 139 µM) | 32 (≈ 69.5 µM) | 8 (≈ 17.4 µM) | 512 (≈ 1110 µM) | 512 (≈ 1110 µM) | 512 (≈ 1110 µM) | 512 (≈ 1110 µM) | 512 (≈ 1110 µM) | 512 (≈ 1110 µM) | 77 | 150 | 32 (≈ 69.5 µM) | – |
| COC(=O)C(Cc1ccccc1)NP(=O)(OCCN(C)c1cc(=O)oc2ccc(C)cc12)Oc1ccccc1 (configuration not stated) | – | – | – | 64 (≈ 116 µM) | 128 (≈ 232 µM) | 64 (≈ 116 µM) | 128 (≈ 232 µM) | 64 (≈ 116 µM) | 64 (≈ 116 µM) | 16 (≈ 29.1 µM) | 256 (≈ 465 µM) | 64 (≈ 116 µM) | 43 | – | 64 (≈ 116 µM) | – |
| COC(=O)CNP(=O)(OCCN(C)c1cc(=O)oc2c(C)cccc12)Oc1ccccc1 (configuration not stated) | – | – | – | 64 (≈ 139 µM) | 128 (≈ 278 µM) | 64 (≈ 139 µM) | 256 (≈ 556 µM) | 128 (≈ 278 µM) | 512 (≈ 1110 µM) | 256 (≈ 556 µM) | 256 (≈ 556 µM) | 32 (≈ 69.5 µM) | 55 | 450 | 64 (≈ 139 µM) | – |
| COC(=O)C(Cc1ccccc1)NP(=O)(OCCN(C)c1cc(=O)oc2ccc(C(C)(C)C)cc12)Oc1ccccc1 (configuration not stated) | – | – | – | 2 (≈ 3.37 µM) | 32 (≈ 54 µM) | 8 (≈ 13.5 µM) | 128 (≈ 216 µM) | 8 (≈ 13.5 µM) | 32 (≈ 54 µM) | 16 (≈ 27 µM) | 16 (≈ 27 µM) | 16 (≈ 27 µM) | 90 | 80 | 8 (≈ 13.5 µM) | 96 |
| OC(Cn1cncn1)(Cn1cncn1)c1ccc(F)cc1F [FLUCONAZOLE] | – | 8 (≈ 26.1 µM) | 8 (≈ 26.1 µM) | 32 (≈ 104 µM) | 32 (≈ 104 µM) | 8 (≈ 26.1 µM) | – | – | – | – | – | – | – | – | 16 (≈ 52.2 µM) | – |
| COC(=O)CNP(=O)(OCCN(C)c1cc(=O)oc2ccccc12)Oc1ccccc1 (configuration not stated) | – | – | – | 128 (≈ 287 µM) | 128 (≈ 287 µM) | 64 (≈ 143 µM) | 256 (≈ 573 µM) | 256 (≈ 573 µM) | 512 (≈ 1150 µM) | 512 (≈ 1150 µM) | 256 (≈ 573 µM) | 128 (≈ 287 µM) | 49 | 640 | 64 (≈ 143 µM) | – |
| CN[C@@H]1[C@H](O[C@H]2[C@H](O[C@H]3[C@H](O)[C@@H](O)[C@H](N=C(N)N)[C@@H](O)[C@@H]3N=C(N)N)O[C@@H](C)[C@]2(O)C=O)O[C@@H](CO)[C@H](O)[C@H]1O [STREPTOMYCIN] | – | – | – | – | – | – | 4 (≈ 6.88 µM) | 4 (≈ 6.88 µM) | 4 (≈ 6.88 µM) | 1 (≈ 1.72 µM) | 4 (≈ 6.88 µM) | 4 (≈ 6.88 µM) | – | – | – | – |
| COC(=O)CNP(=O)(OCCN(C)c1cc(=O)oc2cc(C)ccc12)Oc1ccccc1 (configuration not stated) | – | – | – | 64 (≈ 139 µM) | 32 (≈ 69.5 µM) | 16 (≈ 34.8 µM) | 256 (≈ 556 µM) | 256 (≈ 556 µM) | 512 (≈ 1110 µM) | 512 (≈ 1110 µM) | 512 (≈ 1110 µM) | 128 (≈ 278 µM) | 59 | 320 | 32 (≈ 69.5 µM) | – |
| COC(=O)C(NP(=O)(OCCN(C)c1cc(=O)oc2ccc(C(C)(C)C)cc12)Oc1ccccc1)C(C)C (configuration not stated) | – | – | – | 2 (≈ 3.67 µM) | 64 (≈ 118 µM) | 32 (≈ 58.8 µM) | 16 (≈ 29.4 µM) | 32 (≈ 58.8 µM) | 16 (≈ 29.4 µM) | 32 (≈ 58.8 µM) | 32 (≈ 58.8 µM) | 16 (≈ 29.4 µM) | 62 | 180 | 64 (≈ 118 µM) | – |
